Data on five test systems can be found in the supplement of paper PMC6045584.

± gives the standard deviation of the averaged measurements.

Compound in one experiment: CO[C@H]1C[C@@H]2CC[C@@H](C)[C@@](O)(O2)C(=O)C(=O)N2CCCC[C@H]2C(=O)O[C@H]([C@H](C)C[C@@H]2CC[C@@H](OCCO)[C@H](OC)C2)CC(=O)[C@H](C)/C=C(\C)[C@@H](O)[C@@H](OC)C(=O)[C@H](C)C[C@H](C)/C=C/C=C/C=C/1C [EVEROLIMUS]
Briefly: surviving fraction relative to DMSO-only wells; higher = less growth inhibition. Particulars: exposure time: 5 days. The method, boiled down:
(§1)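 Lines were retained only if, across three screens, replicate Pearson r was >0.7 and median Z' was >0.3. Viability was measured as CellTiter-Glo luminescence and reported as surviving fraction relative to the median of DMSO-only wells. Readings followed 10 minutes at room temperature, after log-phase tumour cells seeded at 250–500 per well in 384-well plates had been exposed, from 24 hours after seeding, continuously for five days to inhibitors at 0.5, 1, 5, 10, 50, 100, 500 and 1000 nM.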

Compound in a further experiment: O=C(O)CC[C@H]1CC[C@@](c2cc(F)ccc2F)(S(=O)(=O)c2ccc(Cl)cc2)CC1 [MK0752]
Described as above. Particulars: exposure time: 5 days. The method, boiled down:
as §1

Take HCC70 BREAST: the surviving fraction in the experiment with EVEROLIMUS (0.5 nM) was determined as 0.866 ± 0.073; with EVEROLIMUS (1 nM), 0.749 ± 0.059; with EVEROLIMUS (5 nM) it was 0.606 ± 0.017; with EVEROLIMUS (10 nM), 0.536 ± 0.024; with EVEROLIMUS (50 nM), 0.536 ± 0.052; with EVEROLIMUS (100 nM), 0.543 ± 0.019. Further, the surviving fraction is 0.44 ± 0.054 in the experiment with EVEROLIMUS (500 nM); 0.429 ± 0.01 with EVEROLIMUS (1000 nM); 1.1 ± 0.079 in the experiment with MK0752 (0.5 nM); 1.07 ± 0.05 in the experiment with MK0752 (1 nM); 1.132 ± 0.01 in the experiment with MK0752 (5 nM); 1.08 ± 0.029 in the experiment with MK0752 (10 nM). Moreover, the surviving fraction in the experiment with MK0752 (50 nM) was 1.11 ± 0.073; with MK0752 (100 nM) it was 1.08 ± 0.13; in the experiment with MK0752 (500 nM) it was 1.03 ± 0.055; with MK0752 (1000 nM), 0.924 ± 0.074.
Turning to HCC78 LUNG, the surviving fraction with EVEROLIMUS (0.5 nM) amounted to 0.516 ± 0.13; with EVEROLIMUS (1 nM), 0.674 ± 0.26; with EVEROLIMUS (5 nM) it was 0.528 ± 0.11; with EVEROLIMUS (10 nM) it was 0.627 ± 0.11; in the experiment with EVEROLIMUS (50 nM), 0.621 ± 0.1; in the experiment with EVEROLIMUS (100 nM) it was 0.599 ± 0.18. Moreover, the surviving fraction in the experiment with EVEROLIMUS (500 nM) is 0.358 ± 0.052; in the experiment with EVEROLIMUS (1000 nM), 0.327 ± 0.055; with MK0752 (0.5 nM), 0.916 ± 0.12; in the experiment with MK0752 (1 nM), 0.966 ± 0.16; with MK0752 (5 nM), 1.08 ± 0.16; with MK0752 (10 nM), 1.07 ± 0.12. For the same test system, the surviving fraction with MK0752 (50 nM) was 1.17 ± 0.062; in the experiment with MK0752 (100 nM), 1.06 ± 0.15; with MK0752 (500 nM) it was 0.839 ± 0.24; with MK0752 (1000 nM), 0.957 ± 0.17.
As to HCC202 BREAST, the surviving fraction amounted to 1 ± 0.083 in the experiment with EVEROLIMUS (0.5 nM); 0.79 ± 0.055 with EVEROLIMUS (1 nM); 0.548 ± 0.15 with EVEROLIMUS (5 nM); 0.578 ± 0.13 with EVEROLIMUS (10 nM); 0.383 ± 0.093 in the experiment with EVEROLIMUS (50 nM); 0.471 ± 0.1 in the experiment with EVEROLIMUS (100 nM). The surviving fraction with EVEROLIMUS (500 nM) was 0.44 ± 0.054; with EVEROLIMUS (1000 nM) it was 0.385 ± 0.14; in the experiment with MK0752 (0.5 nM) it was 1.28 ± 0.66; in the experiment with MK0752 (1 nM) it was 0.775 ± 0.51; with MK0752 (5 nM), 0.94 ± 0.78; with MK0752 (10 nM), 1.27 ± 0.18. In addition, the surviving fraction with MK0752 (50 nM) was determined as 1.23 ± 0.21; in the experiment with MK0752 (100 nM), 1.21 ± 0.1; with MK0752 (500 nM), 1.31 ± 0.069; with MK0752 (1000 nM), 1.39 ± 0.36.
As for HCC1806 BREAST, the surviving fraction with EVEROLIMUS (0.5 nM) was found to be 0.918 ± 0.13; with EVEROLIMUS (1 nM), 0.911 ± 0.043; with EVEROLIMUS (5 nM), 0.888 ± 0.085; with EVEROLIMUS (10 nM), 0.851 ± 0.051; in the experiment with EVEROLIMUS (50 nM) it was 0.784 ± 0.095; with EVEROLIMUS (100 nM) it was 0.859 ± 0.083. The surviving fraction stood at 0.669 ± 0.11 in the experiment with EVEROLIMUS (500 nM); 0.74 ± 0.12 in the experiment with EVEROLIMUS (1000 nM); 0.974 ± 0.05 in the experiment with MK0752 (0.5 nM); 1.15 ± 0.15 with MK0752 (1 nM); 1.23 ± 0.1 with MK0752 (5 nM); 1.21 ± 0.086 with MK0752 (10 nM). For the same test system, the surviving fraction was 1.28 ± 0.043 with MK0752 (50 nM), 1.23 ± 0.14 in the experiment with MK0752 (100 nM), 1.19 ± 0.075 with MK0752 (500 nM) and 1.25 ± 0.025 in the experiment with MK0752 (1000 nM).
For the test system HCC1954 BREAST, the surviving fraction in the experiment with EVEROLIMUS (0.5 nM) turned out to be 0.4 ± 0.05; in the experiment with EVEROLIMUS (1 nM) it was 0.376 ± 0.082; with EVEROLIMUS (5 nM), 0.399 ± 0.074; in the experiment with EVEROLIMUS (10 nM), 0.428 ± 0.08; in the experiment with EVEROLIMUS (50 nM), 0.321 ± 0.014; with EVEROLIMUS (100 nM) it was 0.308 ± 0.016. Moreover, the surviving fraction was found to be 0.249 ± 0.039 with EVEROLIMUS (500 nM); 0.275 ± 0.037 in the experiment with EVEROLIMUS (1000 nM); 0.922 ± 0.069 with MK0752 (0.5 nM); 0.747 ± 0.054 with MK0752 (1 nM); 1.18 ± 0.13 in the experiment with MK0752 (5 nM); 1.15 ± 0.15 with MK0752 (10 nM). Further, the surviving fraction in the experiment with MK0752 (50 nM) was found to be 1 ± 0.05; with MK0752 (100 nM), 0.904 ± 0.02; with MK0752 (500 nM), 0.741 ± 0.05; in the experiment with MK0752 (1000 nM), 0.808 ± 0.073.
